Tests used:
[1] = test system: three strains of A. baumannii; assay: E-test sensitization by NAB7061, summary over strains; assay type: cell-based; conditions: Acinetobacter baumannii, read-out: resulting MIC values in the presence of NAB7061 (4 μg/ml)
Excerpt: (§1) The strains originated from ATCC (11 strains), CCUG (11 strains), and NCTC (The National Collection of Type Cultures, Colindale, U.K.; 2 strains). Eight strains (the F-strains) were purchased from Mobidiag Ltd., Helsinki, Finland.

S. marcescens ATCC8100 = assay: E-test MIC with or without NAB7061 (4 μg/ml), Mueller-Hinton agar; assay type: cell-based, Serratia marcescens
Protocol: (§2) MICs were determined by using E-strips (Biodisk Ltd., Solna, Sweden) according to the manufacturer's instructions.
as §1

P. mirabilis ATCC29906 = assay: as above; assay type: cell-based, Proteus mirabilis
Protocol: as §2, §1

Ac. baumannii F264 = assay: as above; assay type: cell-based, Acinetobacter baumannii; conditions: Ac. baumannii F264
Protocol: as §2, §1

Ac. baumannii F263 = assay: as above; assay type: cell-based, Acinetobacter baumannii; conditions: Ac. baumannii F263
Protocol: as §2, §1

Ac. baumannii ATCC19606 = assay: as above; assay type: cell-based, Acinetobacter baumannii; conditions: Ac. baumannii ATCC19606
Protocol: as §2, §1

E. coli NCTC13353 = assay: as above; assay type: cell-based, Escherichia coli
Outline: (§3)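 Gradient-strip (E-strip) method, performed per manufacturer's protocol; MIC read where growth inhibition met the strip.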

E. coli CCUG41424 = assay: as above; assay type: cell-based, Escherichia coli
Outline: as §3

E. coli CCUG41421 = assay: as above; assay type: cell-based, Escherichia coli
Outline: as §3

E. coli CCUG41432 = assay: as above; assay type: cell-based, Escherichia coli
Outline: as §3

E. coli CCUG41427 = assay: as above; assay type: cell-based, Escherichia coli
Outline: as §3

E. coli NCTC13351 = assay: as above; assay type: cell-based, Escherichia coli
Outline: as §3

E. coli CCUG41429 = assay: as above; assay type: cell-based, Escherichia coli
Outline: as §3

E. coli IH3080 = assay: as above; assay type: cell-based, Escherichia coli
Outline: as §3

E. coli CCUG41422 = assay: as above; assay type: cell-based, Escherichia coli
Outline: as §3

E. coli CCUG41425 = assay: as above; assay type: cell-based, Escherichia coli
Outline: as §3

K. oxytoca CCUG51683 = assay: as above; assay type: cell-based, Klebsiella oxytoca
Protocol: as §2, §1

K. oxytoca ATCC13182 = assay: as above; assay type: cell-based, Klebsiella oxytoca
Protocol: as §2, §1

C. freundii ATCC8090 = assay: as above; assay type: cell-based, Citrobacter freundii
Protocol: as §2, §1

K. pneumoniae CCUG45421 = assay: as above; assay type: cell-based, Klebsiella pneumoniae
Protocol: as §2, §1

K. pneumoniae F144 = assay: as above; assay type: cell-based, Klebsiella pneumoniae
Protocol: as §2, §1

K. pneumoniae F145 = assay: as above; assay type: cell-based, Klebsiella pneumoniae
Protocol: as §2, §1

K. pneumoniae F136 = assay: as above; assay type: cell-based, Klebsiella pneumoniae
Protocol: as §2, §1

A. baumannii F264 = assay: E-test MIC of antibiotics on Mueller Hinton agar containing increasing concentrations of NAB739; assay type: cell-based, Acinetobacter baumannii
E. cloacae F232 = assay: E-test MIC with or without NAB7061 (4 μg/ml), Mueller-Hinton agar; assay type: cell-based, Enterobacter cloacae
Outline: as §3

E. cloacae F230 = assay: as above; assay type: cell-based, Enterobacter cloacae
Outline: as §3

E. cloacae CCUG52947 = assay: as above; assay type: cell-based, Enterobacter cloacae
Outline: as §3

E. cloacae ATCC23355 = assay: as above; assay type: cell-based, Enterobacter cloacae
Outline: as §3

E. coli ATCC25922 = conditions: E. coli ATCC25922
Outline: as §3

K. pneumoniae ATCC13883 = conditions: K. pneumoniae ATCC13883
Outline: as §3

P. vulgaris ATCC13315 = assay: E-test MIC with or without NAB7061 (4 μg/ml), Mueller-Hinton agar; assay type: cell-based
Protocol: as §2, §1

S. maltophilia ATCC17444 = assay: as above; assay type: cell-based
Protocol: as §2, §1

P. aeruginosa ATCC 27853 = assay: E-test MIC of antibiotics on Mueller Hinton agar containing increasing concentrations of NAB739; assay type: cell-based, Pseudomonas aeruginosa
A. baumannii ATCC19606 = assay: as above; assay type: cell-based, Acinetobacter baumannii
P. aeruginosa CCUG51971 = assay: E-test MIC with or without NAB7061 (4 μg/ml), Mueller-Hinton agar; assay type: cell-based, Pseudomonas aeruginosa
Protocol: as §2, §1

P. aeruginosa ATCC27853 = assay: as above; assay type: cell-based, Pseudomonas aeruginosa
Protocol: as §2, §1

- MIC of antibiotic in the presence of 4 μg/ml of NAB 7061 (S. marcescens ATCC8100): 96 µg/mL
- MIC of antibiotic in the presence of 4 μg/ml of NAB 7061 (P. mirabilis ATCC29906): 24 µg/mL
- MIC of antibiotic in the presence of 4 μg/ml of NAB 7061 (Ac. baumannii F264): 0.25 µg/mL
- MIC of antibiotic in the presence of 4 μg/ml of NAB 7061 (Ac. baumannii F263): 0.38 µg/mL
- MIC of antibiotic in the presence of 4 μg/ml of NAB 7061 (Ac. baumannii ATCC19606): 0.5 µg/mL
- MIC of antibiotic in the presence of 4 μg/ml of NAB 7061 (E. coli NCTC13353): 1 µg/mL
- MIC of antibiotic in the presence of 4 μg/ml of NAB 7061 (E. coli CCUG41424): 0.125 µg/mL
- MIC of antibiotic in the presence of 4 μg/ml of NAB 7061 (E. coli CCUG41421): 0.125 µg/mL
- MIC of antibiotic in the presence of 4 μg/ml of NAB 7061 (E. coli CCUG41432): 0.064 µg/mL
- MIC of antibiotic in the presence of 4 μg/ml of NAB 7061 (E. coli CCUG41427): 0.064 µg/mL
- MIC of antibiotic in the presence of 4 μg/ml of NAB 7061 (E. coli NCTC13351): 0.032 µg/mL
- MIC of antibiotic in the presence of 4 μg/ml of NAB 7061 (E. coli CCUG41429): 0.064 µg/mL
- MIC of antibiotic in the presence of 4 μg/ml of NAB 7061 (E. coli IH3080): 0.047 to 0.064 µg/mL
- MIC of antibiotic in the presence of 4 μg/ml of NAB 7061 (E. coli CCUG41422): 0.25 µg/mL
- MIC of antibiotic in the presence of 4 μg/ml of NAB 7061 (E. coli CCUG41425): 0.047 µg/mL
- MIC of antibiotic in the presence of 4 μg/ml of NAB 7061 (K. oxytoca CCUG51683): 0.19 µg/mL
- MIC of antibiotic in the presence of 4 μg/ml of NAB 7061 (K. oxytoca ATCC13182): 0.25 µg/mL
- MIC of antibiotic in the presence of 4 μg/ml of NAB 7061 (C. freundii ATCC8090): 0.125 µg/mL
- MIC of antibiotic in the presence of 4 μg/ml of NAB 7061 (K. pneumoniae CCUG45421): 24 µg/mL
- MIC of antibiotic in the presence of 4 μg/ml of NAB 7061 (K. pneumoniae F144): 0.75 µg/mL
- MIC of antibiotic in the presence of 4 μg/ml of NAB 7061 (K. pneumoniae F145): 0.25 µg/mL
- MIC of antibiotic in the presence of 4 μg/ml of NAB 7061 (K. pneumoniae F136): 2 µg/mL
- MIC of antibiotic in the presence of NAB739 (A. baumannii F264; NAB 739 0 μg/ml): 6 µg/mL
- MIC of antibiotic in the presence of NAB739 (A. baumannii F264; NAB 739 0.5 μg/ml): 0.5 µg/mL
- MIC of antibiotic in the presence of NAB739 (A. baumannii F264; NAB 739 1 μg/ml): 0.125 µg/mL
- MIC of antibiotic in the presence of 4 μg/ml of NAB 7061 (E. cloacae F232): 0.094 µg/mL
- MIC of antibiotic in the presence of 4 μg/ml of NAB 7061 (E. cloacae F230): 0.047 µg/mL
- MIC of antibiotic in the presence of 4 μg/ml of NAB 7061 (E. cloacae CCUG52947): 0.38 µg/mL
- MIC of antibiotic in the presence of 4 μg/ml of NAB 7061 (E. cloacae ATCC23355): 0.25 to 0.75 µg/mL
- MIC of antibiotic in the presence of 4 μg/ml of NAB 7061 (E. coli ATCC25922): 0.094 to 0.125 µg/mL
- MIC of antibiotic in the presence of 4 μg/ml of NAB 7061 (K. pneumoniae ATCC13883): 0.19 µg/mL
- MIC of antibiotic in the presence of 4 μg/ml of NAB 7061 (P. vulgaris ATCC13315): 24 µg/mL
- MIC of antibiotic in the presence of 4 μg/ml of NAB 7061 (S. maltophilia ATCC17444): 64 µg/mL
- MIC of antibiotic in the presence of NAB739 (P. aeruginosa ATCC 27853; NAB 739 0 μg/ml): 48 µg/mL
- MIC of antibiotic in the presence of NAB739 (P. aeruginosa ATCC 27853; NAB 739 0.5 μg/ml): 16 µg/mL
- MIC of antibiotic in the presence of NAB739 (P. aeruginosa ATCC 27853; NAB 739 1 μg/ml): 12 µg/mL
- MIC of antibiotic in the presence of NAB739 (P. aeruginosa ATCC 27853; NAB 739 2 μg/ml): 3 µg/mL
- MIC of antibiotic in the presence of NAB739 (P. aeruginosa ATCC 27853; NAB 739 […]): 32 µg/mL
- MIC of antibiotic in the presence of NAB739 (A. baumannii ATCC19606; NAB 739 0 μg/ml): 8 µg/mL
- MIC of antibiotic in the presence of NAB739 (A. baumannii ATCC19606; NAB 739 0.5 μg/ml): 0.5 µg/mL
- MIC of antibiotic in the presence of NAB739 (A. baumannii ATCC19606; NAB 739 1 μg/ml): 0.094 µg/mL
- MIC of antibiotic in the presence of 4 μg/ml of NAB 7061 (P. aeruginosa CCUG51971): 64 µg/mL
- MIC of antibiotic in the presence of 4 μg/ml of NAB 7061 (P. aeruginosa ATCC27853): 32 µg/mL
SMILES: CC[C@H]1OC(=O)[C@H](C)[C@@H](O[C@H]2C[C@@](C)(OC)[C@@H](O)[C@H](C)O2)[C@H](C)[C@@H](O[C@@H]2O[C@H](C)C[C@H](N(C)C)[C@H]2O)[C@](C)(OC)C[C@@H](C)C(=O)[C@H](C)[C@@H](O)[C@]1(C)O [Clarithromycin]
- MIC [1]: ≤ 0.5 µg/mL

Reference: patent US8329645B2, “Polymyxin derivatives and uses thereof” (priority 2008, dated 2012)
